Read-outs that look alike come from different tables or passages of the source.
What was measured:
[1] = biological target: T1, endoplasmic reticulum Ca2+-ATPase (SERCA), SR vesicles from rabbit skeletal muscle (Oryctolagus cuniculus, UniProt P04191); assay: SERCA inhibition: 45Ca2+ uptake to sarcoplasmic reticulum vesicles; format: biochemical
T1 construct: sarcoplasmic reticulum (SR) vesicles prepared from rabbit skeletal muscle; from tissue; host or cells: rabbit skeletal muscle sarcoplasmic reticulum vesicles
T1 sequence (P04191 1-994 isoform P04191-2): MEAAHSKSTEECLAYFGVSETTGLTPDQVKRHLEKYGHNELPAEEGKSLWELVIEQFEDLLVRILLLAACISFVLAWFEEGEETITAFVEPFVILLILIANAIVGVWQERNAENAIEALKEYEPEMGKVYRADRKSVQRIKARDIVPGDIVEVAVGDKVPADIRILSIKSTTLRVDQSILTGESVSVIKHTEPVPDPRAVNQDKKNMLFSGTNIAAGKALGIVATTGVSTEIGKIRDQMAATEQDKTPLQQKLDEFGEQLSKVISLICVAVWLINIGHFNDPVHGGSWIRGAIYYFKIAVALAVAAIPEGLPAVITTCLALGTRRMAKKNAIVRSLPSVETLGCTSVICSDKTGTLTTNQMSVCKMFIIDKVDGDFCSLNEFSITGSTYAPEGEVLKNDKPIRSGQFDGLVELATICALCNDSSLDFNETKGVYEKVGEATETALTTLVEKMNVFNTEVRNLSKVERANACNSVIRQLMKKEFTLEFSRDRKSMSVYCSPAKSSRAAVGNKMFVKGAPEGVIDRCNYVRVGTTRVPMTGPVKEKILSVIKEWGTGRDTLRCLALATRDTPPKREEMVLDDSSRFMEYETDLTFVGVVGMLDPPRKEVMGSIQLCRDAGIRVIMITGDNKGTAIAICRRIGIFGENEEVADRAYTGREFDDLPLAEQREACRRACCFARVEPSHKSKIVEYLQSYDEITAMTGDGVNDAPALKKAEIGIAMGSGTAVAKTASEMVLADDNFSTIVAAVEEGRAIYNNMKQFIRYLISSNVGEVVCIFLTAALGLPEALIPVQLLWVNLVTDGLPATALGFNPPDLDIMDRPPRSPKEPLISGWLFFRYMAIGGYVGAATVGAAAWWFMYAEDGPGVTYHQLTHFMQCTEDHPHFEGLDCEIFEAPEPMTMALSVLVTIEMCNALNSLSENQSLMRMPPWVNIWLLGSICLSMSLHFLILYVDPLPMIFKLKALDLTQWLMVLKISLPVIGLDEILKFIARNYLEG
Procedure: The primary amine-containing thapsigargin analogs of the invention have endoplasmic reticulum Ca^2+-ATPase inhibitory activity. This activity is measured as the concentration of analog needed to inhibit 50% of this ATPase (IC50). The IC50 of the analogs of the invention is desirably at most 500 nM, preferably at most 200 nM, and more preferably at most 50 nM of analog.
The inhibitory potency of thapsigargin and its analogs was determined as the concentration required to produce 50% inhibition (i.e. IC50) of ^45Ca^2+ uptake to sarcoplasmic reticulum (SR) vesicles prepared from rabbit skeletal muscle by the method of De Meis and Hasselbach (J. Biol. Chem., 246: 4759-4763, 1971). The ^45Ca^2+ uptake assay was as described previously (Christensen, et al., FEBS, 335: 345-348, 1993), with the following modifications: 5 μg/ml of SR protein was incubated at 25EC and free Ca^2+ adjusted to 100 nM using 4 min. uptake time. Under these conditions, Ca^2+ could proceed linearly with time for at least 8 minutes. Measurements of Ca^2+ within TSU cells was determined as described previously (Lin et al., The Prostate, 33:201-207, 1997).
(§1) The IC50 results are mean (n=3)±standard error. The LC50 results are mean (n=5)±standard error. The entry “ND” stands for “not determined”. Clonogenic survival not determined above 10 μM for dBTG. Analogs with −boc have a t-butoxycarbonyl (boc) protected amino group.

[2] = Clonogenic survival of TSU-Pr1 cells after 72 hours exposure to TG analogs; format: cell-based, human; details: human; TSU-Pr1, 72 hours exposure; mean (n=5) ± standard error; read-out: LC50 (concentration needed to kill 50% of clonogenic cells)
Procedure: The primary amine-containing thapsigargin analogs of the invention have non-specific toxicity toward cells. This toxicity is measured as the concentration of analog needed to kill 50% of clonogenic cells (LC50). The LC50 of the analogs of the invention is desirably at most 20 μM, preferably at most 5 μM, and more preferably at most 500 nM of analog.
Percentage clonogenic survival of TSU-Pr1 (2×10^5 cells) following 72 hours of exposure to varying concentrations of TG analogs was performed as described in Martikainen et al. Cancer Res., 51, 4693-4700 (1991).
as §1
The androgen responsive PSA-producing LNCaP and androgen independent PSA non-producing TSU-Pr1 are human prostate cancer lines were obtained from ATCC (Rockville, Md.) and maintained by serial passage in RPMI 1640 media containing 10% fetal calf serum with 100 units/ml penicillin G, and 100 units/ml streptomycin sulfate (antibiotics from M.A. Bioproducts, Walkerville, Md.) as standard media in 5% CO2/95% air at 37° C. The origins and characteristics of the LNCaP and TSU-Pr1 cell lines are described in Horoszewicz, et al., Cancer Res., 43:1809-1818, (1980)and Iizumi, et al., J. Urol, 137: 1304-1306, (1987).

[3] = mean (n=3) ± standard error, 5 μg/ml SR protein, free Ca2+ 100 nM, 4 min uptake, read-out: IC50 (50% inhibition of 45Ca2+ uptake to SR vesicles)

Row | SMILES | IC50 [1, 3] | CC50 [2] | IC50 [1]
1 | C/C=C(/C)C(=O)O[C@H]1C(C)=C2[C@H]([C@@H]1OC(=O)CCCCCCC)[C@@](C)(OC(C)=O)C[C@H](OC(=O)CCc1ccc(N)cc1)[C@@]1(O)[C@H]2OC(=O)[C@@]1(C)O [APT, 8-O-(3-[4-aminophenyl]propionyl)-8-O-debutanoylthapsigargin] | 0.0162 ± 0.0009 µM | 0.275 ± 0.06 µM | –
2 | C/C=C(/C)C(=O)O[C@H]1C(C)=C2[C@H]([C@@H]1OC(=O)CCCCCCC)[C@@](C)(OC(C)=O)C[C@H](OC(=O)CCCCCC(=O)Nc1ccc(C)c(N)c1)[C@@]1(O)[C@H]2OC(=O)[C@@]1(C)O [PDT, 8-O-{6-(N-[3-amino-4-methylphenyl]-carboxamido)hexanoyl}-8-O-debutanoylthapsigargin] | 0.0177 ± 0.0024 µM | 3.1 ± 0.2 µM | –
3 | C/C=C(/C)C(=O)O[C@H]1C(C)=C2[C@H]([C@@H]1OC(=O)CCCCCCC)[C@@](C)(OC(C)=O)C[C@H](OC(=O)CCCc1ccc(NC(=O)OC(C)(C)C)cc1)[C@@]1(O)[C@H]2OC(=O)[C@@]1(C)O [ABuT-boc, 8-O-(4-[4-t-butoxycarbonylaminophenyl]butanoyl)-8-O-debutanoylthapsigargin] | – | – | 0.0144 ± 0.0008 µM
4 | C/C=C(/C)C(=O)O[C@H]1C(C)=C2[C@H]([C@@H]1OC(=O)CCCCCCC)[C@@](C)(OC(C)=O)C[C@H](OC(=O)CCCc1ccc(N)cc1)[C@@]1(O)[C@H]2OC(=O)[C@@]1(C)O [ABuT, 8-O-(4-[4-aminophenyl]butanoyl)-8-O-debutanoylthapsigargin] | 0.0184 ± 0.0014 µM | 0.225 ± 0.02 µM | –
5 | C/C=C(/C)C(=O)O[C@H]1C(C)=C2[C@H]([C@@H]1OC(=O)CCCCCCC)[C@@](C)(OC(C)=O)C[C@H](OC(=O)c1ccc(N)cc1)[C@@]1(O)[C@H]2OC(=O)[C@@]1(C)O [ABT, 8-O-(4-aminobenzoyl)-8-O-debutanoylthapsigargin] | 0.0184 ± 0.0003 µM | 4 ± 0.3 µM | –
6 | C/C=C(/C)C(=O)O[C@H]1C(C)=C2[C@H]([C@@H]1OC(=O)CCCCCCC)[C@@](C)(OC(C)=O)C[C@H](OC(=O)CCc1ccc(NC(=O)OC(C)(C)C)cc1)[C@@]1(O)[C@H]2OC(=O)[C@@]1(C)O [APT-boc, 8-O-(3-[4-t-butoxycarbonylaminophenyl]propionyl)-8-O-debutanoylthapsigargin] | 0.0212 ± 0.0008 µM | 0.87 ± 0.015 µM | –
7 | C/C=C(/C)C(=O)O[C@H]1C(C)=C2[C@H]([C@@H]1OC(=O)CCCCCCC)[C@@](C)(OC(C)=O)C[C@H](OC(=O)/C=C/c1ccc(NC(=O)OC(C)(C)C)cc1)[C@@]1(O)[C@H]2OC(=O)[C@@]1(C)O [ACT-boc, 8-O-(4-t-butoxycarbonylaminocinnamoyl)-8-O-debutanoylthapsigargin] | 0.0203 ± 0.0002 µM | 1.9 ± 0.1 µM | –
8 | C/C=C(/C)C(=O)O[C@H]1C(C)=C2[C@H]([C@@H]1OC(=O)CCCCCCC)[C@@](C)(OC(C)=O)C[C@H](OC(=O)CCCC(=O)Nc1ccc(C)c(N)c1)[C@@]1(O)[C@H]2OC(=O)[C@@]1(C)O [GDT, 8-O-{4-(N-[3-amino-4-methylphenyl]-carboxamido)butanoyl}-8-O-debutanoylthapsigarg in] | 0.316 ± 0.023 µM | 16.6 ± 0.4 µM | –
9 | C/C=C(/C)C(=O)O[C@H]1C(C)=C2[C@H]([C@@H]1OC(=O)CCCCCCC)[C@@](C)(OC(C)=O)C[C@H](OC(=O)CCC(=O)Nc1ccc(C)c(N)c1)[C@@]1(O)[C@H]2OC(=O)[C@@]1(C)O [SDT, 8-O-{3-(N-[3-amino-4-methylphenyl]-carboxamido)propanoyl}-8-O-debutanoylthapsigargin] | 1.28 ± 0.091 µM | > 25 µM | –
